The values below come from patent US10316313B2, “Mesoporous catalysts of magnetic nanoparticles and free-radical-producing enzymes, and methods of use” (Cornell University, priority 2011, dated 2019).

Assay [1] addresses T1, Horseradish Peroxidase (HRP, E.C. 1.11.1.7, type VI-A) entrapped in M90 magnetite nanoparticle clusters (M90-BNC) (Armoracia rusticana, UniProt P00433).
T1 construct: purchased
T1 sequence (P00433 31-338 limits assumed): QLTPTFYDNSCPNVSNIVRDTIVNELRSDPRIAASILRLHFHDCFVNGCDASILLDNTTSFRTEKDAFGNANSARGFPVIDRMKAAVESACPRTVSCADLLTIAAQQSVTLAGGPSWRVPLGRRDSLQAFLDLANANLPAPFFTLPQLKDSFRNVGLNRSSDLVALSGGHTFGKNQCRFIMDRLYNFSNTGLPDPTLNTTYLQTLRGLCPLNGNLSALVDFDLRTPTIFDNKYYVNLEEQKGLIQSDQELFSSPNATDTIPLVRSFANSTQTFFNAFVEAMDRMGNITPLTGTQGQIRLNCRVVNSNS
Kind of assay: Phenol/AAP assay, H2O2 substrate inhibition model, M90-BNC. It counts as biochemical. From the text: (§1) The enzymes used in this study were Horseradish Peroxidase (HRP, E.C. 1.11.1.7, type VI-A), Lignin Peroxidase (LiP, E.C. 1.11.1.14), Manganese Peroxidase (MnP; E.C. 1.11.1.13) Versatile Peroxidase (syn. hybrid peroxidase, manganese-lignin peroxidase: VeP EC 1.11.1.16), and laccase. All enzymes used herein were obtained from commercial sources. […] High activity forms were obtained by further purification by FPLC (AKTA Explorer, GE Bioscience) using an anionic exchange column (Resource Q, GE Bioscience). Laccase was used without further purification. Protein signal was monitored at 280 nm and the heme signal at 405 nm. For each enzyme, the fractions with a RZ above 1 were pulled together, concentrated and aliquoted. Phenol, homovanillic acid, veratryl alcohol, methoxylphenol, 4-aminoantipyrine (AAP), glucose (the foregoing being at 98% purity), sodium phosphate buffer (PBS) of pH 7.4 and 67 mM, magnetite microsphere powder, manganese sulfate, hydrogen peroxide, FeCl3.6H2O, and FeCl2.4H2O, O-phosphoethydiamine, gold tetrachlorohydrate, and malonate and tartrate disodium salts were obtained from commercial sources.
(§2) Magnetite nanoparticles were synthesized by co-precipitation of Fe^2+ and Fe^3+ under alkaline conditions in a bubbling nitrogen atmosphere at 25° C. (M25) or 90° C. (M90). An acidic solution (25 ml) of the iron salts (2 g of FeCl2.4H2O and 5.2 g of FeCl3.6H2O) was added dropwise to NaOH (250 ml, 1.5 M) under constant stirring. Non-oxidizing conditions were achieved by bubbling all solutions with nitrogen for 15 minutes prior to reaction. The instantaneous black precipitation of Fe3O4 was captured with a neodymium magnet, washed, and neutralized, and kept in distilled water until further use.
(§3) All BNCs were formed with either M90 or M25 magnetite nanoparticles, gold-coated or not. The BNCs were formed with either Horseradish peroxidase, Lignin Peroxidase, Manganese Peroxidase or Versatile Peroxidase. Typical BNC synthesis required the MNPs to be initially monodispersed (i.e., individualized and non-aggregated MNPs). MNPs were sonicated in an ultrasonic bath for 20 minutes at room temperature and used immediately to form the BNCs. In preliminary experiments, the effects of buffer composition, buffer strength, and incubation time were investigated to measure their influence on the formation of the BNCs and the activity of the enzymes. […]
(§4) The peroxidase activity of native HRP and BNC was monitored using the chromogenic phenol/AAP assay that generates phenoxy radicals that readily react with […] to form the pink-colored quinoneimine dye. An automated plate-reader (Synergy 4, Biotek) with injection capabilities and temperature-controlled chamber was used to record the absorbance of the solution at 510 nm in 96-well plates (4 replicates) for 30 minutes. […]

Assay [2] concerns the target T2, Horseradish Peroxidase (HRP, E.C. 1.11.1.7, type VI-A) entrapped in M25 magnetite nanoparticle clusters (M25-BNC) (Armoracia rusticana, UniProt P00433).
T2 construct: purchased
T2 sequence (P00433 31-338 limits assumed): T1 sequence (P00433 31-338 limits assumed)
Kind of assay: Phenol/AAP assay, H2O2 substrate inhibition model, M25-BNC. In kind it is biochemical.
Source text: as §1, §2, §3, §4

[3] abbreviates: compared to the free enzyme at the same concentration.

Entries after “also recorded” stand apart in the source; their conditions may differ.

On to `OO` [H2O2, hydrogen peroxide], for which, in assay [1] (compared to free HRP), the Vmax result was “similar; also recorded: No difference in Vmax” and the kcat result is reported as “also increased for lower concentrations of enzymes”. In addition, the “Ki (H2O2 substrate inhibition constant)” value in assay [1] (in words, compared to free HRP) was “drastically increased”. The “Ki (H2O2 substrate inhibition constant), times greater than the free HRP” value in assay [1] (ratio to free HRP) is on record as “about 10 times”. Moreover, in assay [2] (compared to free HRP), the “Ki (H2O2 substrate inhibition constant)” value is “in the same range than the free HRP; also recorded: in the same range, if not lower, than for the free enzymes” and the Km result is listed as “higher Km; also recorded: increased in the case of BNCs formed with M25”. Further, in assay [2] (setting [3]), the Vmax entry was “two to three times greater than the free enzyme; also recorded: increased in the case of BNCs formed with M25 compared to the Vmax of the free enzymes” and the kcat entry is “two to three times greater than the free enzyme; also recorded: drastically increased in the case of BNCs formed with M25 compared to the free enzyme”.
